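Assay format: 96-well plates, 48-hour exposure. Abbreviation: GI50, concentration required for 50% inhibition of growth. TGI: concentration producing complete growth inhibition.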

From PubChem BioAssay (NCI) come the findings set out here.

Among the test systems are OVCAR-3 ovarian; HOP-62 NSCLC; ACHN renal; U251 CNS; HL-60(TB) leukemia; NCI-H522 lung; NCI-H23 lung; IGROV1 ovarian; CCRF-CEM leukemia; RXF 393 renal.
What all share (experiment): DTP human tumour cell line panel, 48 h

Take `CN(C)CCNC(=O)c1cccc2nc3c(C(=O)NCCN(C)C)cccc3nc12`: the TGI in the assay with OVCAR-3 ovarian came out at 8.67 µM; in the assay with HOP-62 NSCLC, 5.12 µM; with ACHN renal it was 22.3 µM; in the assay on U251 CNS, 11.2 µM; in the assay with HL-60(TB) leukemia it was 3.96 µM; in the assay on NCI-H522 lung it was 1.81 µM. Also, the TGI is 5.76 µM in the assay with NCI-H23 lung, greater than 23.3 µM in the assay on IGROV1 ovarian, 12.7 µM in the assay on CCRF-CEM leukemia and 4.06 µM in the assay with RXF 393 renal.
In the case of `COC(=O)[C@]1(c2ccc(N(C)C)cc2OC)C[C@@H]2CCCN(CCc3c1[nH]c1ccccc31)C2`, the total growth inhibition concentration (TGI) is 36.4 µM in the assay with OVCAR-3 ovarian; greater than 84.9 µM with HOP-62 NSCLC; 36 µM in the assay on U251 CNS; 27.3 µM in the assay with HL-60(TB) leukemia; 21.8 µM in the assay with NCI-H522 lung; greater than 51.1 µM in the assay with NCI-H23 lung. Further, the TGI in the assay with IGROV1 ovarian is 48 µM; in the assay on CCRF-CEM leukemia it was greater than 84.3 µM; in the assay with RXF 393 renal it was 37.9 µM.
In the case of `CCOC(=O)[C@@]1(C)CC(O)C(=O)N1C` (stereo partly drawn), the TGI in the assay on OVCAR-3 ovarian, in the assay on HOP-62 NSCLC, with ACHN renal, with U251 CNS, with HL-60(TB) leukemia and in the assay with NCI-H522 lung was greater than 100 µM throughout. Besides, the total growth inhibition concentration (TGI) in the assay with NCI-H23 lung, in the assay with IGROV1 ovarian, with CCRF-CEM leukemia and in the assay on RXF 393 renal was greater than 100 µM throughout.
Take `Cc1cc(OCCOCCC(F)(F)P(=O)(O)O)ccc1CCc1cnc2c(N)nc3cc(CCC(=O)O)ccc3c2c1`: the GI50 in the assay with OVCAR-3 ovarian, with HOP-62 NSCLC, in the assay on ACHN renal, in the assay on U251 CNS, with HL-60(TB) leukemia and in the assay with NCI-H522 lung was greater than 100 µM in each case. Further, the GI50 in the assay on NCI-H23 lung, with IGROV1 ovarian, with CCRF-CEM leukemia and in the assay on RXF 393 renal was greater than 100 µM in each case. For the same compound, the TGI in the assay with OVCAR-3 ovarian, in the assay with HOP-62 NSCLC, in the assay on ACHN renal, in the assay on U251 CNS, with HL-60(TB) leukemia and in the assay on NCI-H522 lung was greater than 100 µM in each case. Also, the TGI in the assay with NCI-H23 lung, in the assay with IGROV1 ovarian, in the assay on CCRF-CEM leukemia and with RXF 393 renal was greater than 100 µM in each case.
Consider `CCCCCCCCP(=O)(O)OP(=O)(O)OCC1OC(n2ccc(N)nc2=O)C(O)C1O` (stereo not drawn), for which the TGI in the assay on OVCAR-3 ovarian, in the assay with HOP-62 NSCLC, in the assay with ACHN renal, in the assay with U251 CNS, in the assay on HL-60(TB) leukemia and in the assay with NCI-H522 lung was greater than 100 µM in each case. The TGI in the assay on NCI-H23 lung, in the assay on IGROV1 ovarian, in the assay on CCRF-CEM leukemia and in the assay with RXF 393 renal was greater than 100 µM in each case.
Consider `CN(CCCNC(=O)c1nn(C)c2c1Cc1ccccc1-2)CCCNC(=O)c1nn(C)c2c1Cc1ccccc1-2`, for which the TGI stood at 38 µM in the assay on OVCAR-3 ovarian; 26.8 µM in the assay on HOP-62 NSCLC; 31 µM in the assay with ACHN renal; 26.2 µM in the assay with U251 CNS; 10.8 µM in the assay with HL-60(TB) leukemia; 40.6 µM in the assay on NCI-H522 lung. The total growth inhibition concentration (TGI) with NCI-H23 lung was found to be 47.3 µM; in the assay on IGROV1 ovarian it was 35 µM; in the assay with CCRF-CEM leukemia, 10.9 µM; with RXF 393 renal, 34.3 µM.
For the compound `COC(=O)C(Cc1c[nH]c2ccccc12)NP(=O)(O)OCC1OC(n2cc(Br)c(=O)[nH]c2=O)CC1O` (stereo not drawn), the TGI with OVCAR-3 ovarian, in the assay on HOP-62 NSCLC, in the assay on ACHN renal, with U251 CNS, in the assay with HL-60(TB) leukemia and in the assay on NCI-H522 lung was greater than 100 µM throughout. In addition, the TGI in the assay with NCI-H23 lung, in the assay with IGROV1 ovarian, in the assay with CCRF-CEM leukemia and with RXF 393 renal was greater than 100 µM in each case.
For `COC(=O)[C@]1(c2cc3ccccc3[nH]2)CC2CN(C(=O)OCc3ccccc3)C1CC2=O` (stereo partly drawn), the TGI in the assay with OVCAR-3 ovarian is greater than 100 µM; in the assay with HOP-62 NSCLC it was greater than 100 µM; with ACHN renal, 86 µM; in the assay with U251 CNS, 34.1 µM; in the assay on HL-60(TB) leukemia, 44.4 µM; in the assay on NCI-H522 lung, 66.8 µM. Besides, the TGI was greater than 100 µM in the assay on NCI-H23 lung, greater than 100 µM with IGROV1 ovarian, greater than 100 µM in the assay on CCRF-CEM leukemia and 68.2 µM in the assay with RXF 393 renal.
Turning to `O[C@@H]1CCC[C@@H]2NC[C@@H](c3ccc4c(c3)OCO4)[C@H]12`, the TGI in the assay on OVCAR-3 ovarian, in the assay on HOP-62 NSCLC, in the assay on ACHN renal, in the assay with U251 CNS, in the assay with HL-60(TB) leukemia and in the assay on NCI-H522 lung was greater than 100 µM throughout. Further, the TGI in the assay on NCI-H23 lung, in the assay on IGROV1 ovarian, in the assay on CCRF-CEM leukemia and in the assay on RXF 393 renal was greater than 100 µM throughout.
As for `CCCCc1ccc(Nc2nc(Cl)c3c(ncn3C3CC(Oc4ccc(C)cc4)C(COc4ccc(C)cc4)O3)n2)cc1` (stereo not drawn), the TGI in the assay on OVCAR-3 ovarian, in the assay with HOP-62 NSCLC, in the assay on ACHN renal, with U251 CNS, in the assay on HL-60(TB) leukemia and with NCI-H522 lung was greater than 100 µM throughout. In addition, the TGI in the assay with NCI-H23 lung, in the assay on IGROV1 ovarian, in the assay with CCRF-CEM leukemia and in the assay on RXF 393 renal was greater than 100 µM in each case.
`Cc1ccc(S(=O)(=O)N/N=C2\CC3CC4CCC2C4C3)cc1` (stereo not drawn): the concentration for total growth inhibition (TGI) in the assay with OVCAR-3 ovarian, with HOP-62 NSCLC, in the assay with ACHN renal, with U251 CNS, with HL-60(TB) leukemia and with NCI-H522 lung was greater than 100 µM throughout. Further, the concentration for total growth inhibition (TGI) in the assay with NCI-H23 lung, in the assay on IGROV1 ovarian, in the assay on CCRF-CEM leukemia and in the assay on RXF 393 renal was greater than 100 µM throughout.
As for `COC1=C(C)C(=O)C2=C(C1=O)C1C3CC4=C(C(=O)C(OC)=C(C)C4=O)C(CNC(=O)C(C)O)N3C(C#N)C(C2)N1C` (stereo not drawn), the TGI is less than 0.01 µM with OVCAR-3 ovarian; less than 0.0282 µM in the assay with HOP-62 NSCLC; 0.359 µM in the assay with ACHN renal; less than 0.01 µM in the assay on HL-60(TB) leukemia; less than 0.01 µM in the assay on NCI-H522 lung; 0.0183 µM in the assay with NCI-H23 lung. Also, the TGI was 1.07 µM with IGROV1 ovarian, 1.38 µM with CCRF-CEM leukemia and 0.022 µM with RXF 393 renal.
